From ChEMBL document CHEMBL2086273, “Significant activity of ecdysteroids on the resistance to doxorubicin in mammalian cancer cells expressing the human ABCB1 transporter” (J Med Chem, 2012)

Tests used:
Type in all cases: cell-based
[1] = molecular target: T1, ATP-dependent translocase ABCB1 (Homo sapiens, UniProt P08183); test: Inhibition of human ABCB1 pump expressed in mouse L5178 cells assessed as fluorescence activity ratio at 20 uM for 10 mins by flow cytometry relative to control; conditions: l5178, 10 min
[2] = molecular target: T1, ATP-dependent translocase ABCB1; test: Inhibition of human ABCB1 expressed in mouse L5178 cells assessed as 50% inhibition of cell proliferation at compound-doxorubicin ratio of 81.5:1 after 48 hrs by MTT assay; conditions: l5178, 48 h
[3] = molecular target: T1, ATP-dependent translocase ABCB1; test: Inhibition of human ABCB1 expressed in mouse L5178 cells assessed as 75% inhibition of cell proliferation at compound-doxorubicin ratio of 81.5:1 after 48 hrs by MTT assay; conditions: l5178, 48 h
[4] = molecular target: T1, ATP-dependent translocase ABCB1; test: Inhibition of human ABCB1 expressed in mouse L5178 cells assessed as 95% inhibition of cell proliferation at compound-doxorubicin ratio of 81.5:1 after 48 hrs by MTT assay; conditions: l5178, 48 h
[5] = molecular target: T1, ATP-dependent translocase ABCB1; test: Inhibition of human ABCB1 expressed in mouse L5178 cells assessed as 50% inhibition of cell proliferation at compound-doxorubicin ratio of 20.4:1 after 48 hrs by MTT assay; conditions: l5178, 48 h
[6] = molecular target: T1, ATP-dependent translocase ABCB1; test: Inhibition of human ABCB1 expressed in mouse L5178 cells assessed as 75% inhibition of cell proliferation at compound-doxorubicin ratio of 20.4:1 after 48 hrs by MTT assay; conditions: l5178, 48 h
[7] = molecular target: T1, ATP-dependent translocase ABCB1; test: Inhibition of human ABCB1 expressed in mouse L5178 cells assessed as 95% inhibition of cell proliferation at compound-doxorubicin ratio of 20.4:1 after 48 hrs by MTT assay; conditions: l5178, 48 h

T1 sequence (P08183 whole entry): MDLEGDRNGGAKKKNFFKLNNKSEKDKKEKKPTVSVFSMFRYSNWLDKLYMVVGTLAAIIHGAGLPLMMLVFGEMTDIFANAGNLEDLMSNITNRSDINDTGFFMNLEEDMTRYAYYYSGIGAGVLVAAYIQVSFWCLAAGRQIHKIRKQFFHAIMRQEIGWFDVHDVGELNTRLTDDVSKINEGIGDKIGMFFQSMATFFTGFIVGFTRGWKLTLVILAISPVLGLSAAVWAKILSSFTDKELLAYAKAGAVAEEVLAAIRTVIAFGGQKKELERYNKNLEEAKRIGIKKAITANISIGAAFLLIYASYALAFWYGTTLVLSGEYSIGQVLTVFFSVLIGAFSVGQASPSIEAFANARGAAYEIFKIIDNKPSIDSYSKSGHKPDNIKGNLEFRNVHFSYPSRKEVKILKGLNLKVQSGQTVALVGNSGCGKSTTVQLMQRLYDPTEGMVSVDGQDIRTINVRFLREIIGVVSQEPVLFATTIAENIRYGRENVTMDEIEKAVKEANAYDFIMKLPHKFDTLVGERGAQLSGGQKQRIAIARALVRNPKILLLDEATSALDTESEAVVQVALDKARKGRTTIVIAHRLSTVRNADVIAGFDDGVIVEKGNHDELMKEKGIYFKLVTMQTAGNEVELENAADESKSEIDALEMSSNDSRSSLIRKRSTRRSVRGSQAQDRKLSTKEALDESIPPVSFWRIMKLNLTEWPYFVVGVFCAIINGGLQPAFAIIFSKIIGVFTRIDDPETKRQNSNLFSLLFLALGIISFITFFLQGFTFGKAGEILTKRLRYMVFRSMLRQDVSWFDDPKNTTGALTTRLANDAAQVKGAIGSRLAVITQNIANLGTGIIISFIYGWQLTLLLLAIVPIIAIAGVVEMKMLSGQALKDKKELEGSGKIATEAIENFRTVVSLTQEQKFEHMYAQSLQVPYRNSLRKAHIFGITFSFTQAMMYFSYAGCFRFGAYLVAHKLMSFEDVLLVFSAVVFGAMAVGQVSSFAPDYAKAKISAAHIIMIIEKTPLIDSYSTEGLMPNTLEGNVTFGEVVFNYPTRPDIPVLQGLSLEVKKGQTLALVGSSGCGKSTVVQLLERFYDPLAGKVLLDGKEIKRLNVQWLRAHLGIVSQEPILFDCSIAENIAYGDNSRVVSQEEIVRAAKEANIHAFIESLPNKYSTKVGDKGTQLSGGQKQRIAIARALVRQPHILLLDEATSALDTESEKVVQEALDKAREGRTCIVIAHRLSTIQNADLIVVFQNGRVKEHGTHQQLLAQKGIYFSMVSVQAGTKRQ

In the case of `CC(C)(O)CC[C@@H](O)[C@](C)(O)[C@H]1CC[C@@]2(O)C3=CC(=O)[C@@]4(O)C[C@@H](O)CC[C@]4(C)[C@H]3CC[C@]12C`, the Ratio [1] is reported as 1.21, the “fractional inhibitory concentration index (FICI)” value [2] is reported as 0.78 and the “fractional inhibitory concentration index (FICI)” value [3] is reported as 0.45. The “fractional inhibitory concentration index (FICI)” value [4] was 0.27.

`CC(C)(O)CC[C@@H](O)[C@](C)(O)[C@H]1CC[C@@]2(O)C3=CC(=O)[C@H]4C[C@@H](O)C[C@@H](O)[C@]4(C)[C@H]3CC[C@]12C` was tested, and the Ratio [1] was 0.68, the “fractional inhibitory concentration index (FICI)” value [5] was 2.48 and the “fractional inhibitory concentration index (FICI)” value [6] was 1.7. For the same compound, the “fractional inhibitory concentration index (FICI)” value [7] was 1.97.

For `CC(C)(O)CC[C@@H](O)[C@](C)(O)[C@H]1CC[C@@]2(O)C3=CC(=O)[C@@H]4C[C@@H](O)[C@@H](O)C[C@]4(C)[C@H]3CC[C@]12C` [20-HYDROXYECDYSONE], the Ratio [1] was 1.76, the “fractional inhibitory concentration index (FICI)” value [5] was 2 and the “fractional inhibitory concentration index (FICI)” value [6] was 2.02. The “fractional inhibitory concentration index (FICI)” value [7] was 2.04.

`CC(C)(O)CC[C@@H](O)[C@](C)(O)[C@H]1CC[C@@]2(O)C3=CC(=O)[C@@H]4C[C@@H](O)[C@@H](O)C[C@]4(C)[C@H]3[C@H](O)C[C@]12C` [TURKESTERONE] was tested, and the Ratio [1] was 0.93, the “fractional inhibitory concentration index (FICI)” value [2] was 5.19 and the “fractional inhibitory concentration index (FICI)” value [3] was 4.53. The “fractional inhibitory concentration index (FICI)” value [4] was 4.2.

With `CC1(C)CC[C@H]([C@](C)(O)[C@H]2CC[C@@]3(O)C4=CC(=O)[C@@H]5C[C@@H](O)[C@@H](O)C[C@]5(C)[C@H]4CC[C@]23C)O1` [SHIDASTERONE] the Ratio [1] was 0.88, the “fractional inhibitory concentration index (FICI)” value [2] was 1.44 and the “fractional inhibitory concentration index (FICI)” value [3] was 0.32. For the same compound, the “fractional inhibitory concentration index (FICI)” value [4] was 0.096.

In the case of `CC(=O)O[C@H](CCC(C)(C)O)[C@](C)(O)[C@H]1CC[C@@]2(O)C3=CC(=O)[C@@H]4C[C@@H](O)CC[C@]4(C)[C@H]3CC[C@]12C`, the Ratio [1] is reported as 1.21, the “fractional inhibitory concentration index (FICI)” value [2] is reported as 1.03 and the “fractional inhibitory concentration index (FICI)” value [3] is reported as 0.66. The “fractional inhibitory concentration index (FICI)” value [4] was 0.44.

With `CC[C@H](C[C@H]1OC(C)(C)O[C@]1(C)[C@H]1CC[C@@]2(O)C3=CC(=O)[C@@H]4C[C@@H](O)[C@@H](O)C[C@]4(C)[C@H]3CC[C@]12C)C(C)(C)O` the Ratio [1] was 1.21, the “fractional inhibitory concentration index (FICI)” value [2] was 0.81 and the “fractional inhibitory concentration index (FICI)” value [3] was 0.26. The “fractional inhibitory concentration index (FICI)” value [4] was 0.091.

`C=C(CCCC(C)(C)O)[C@H]1CC[C@@]2(O)C3=CC(=O)[C@@H]4C[C@@H](O)[C@@H](O)[C@@H](O)[C@]4(C)[C@H]3CC[C@]12C` was tested, and the Ratio [1] was 1.58, the “fractional inhibitory concentration index (FICI)” value [5] was 0.79 and the “fractional inhibitory concentration index (FICI)” value [6] was 0.86. The “fractional inhibitory concentration index (FICI)” value [7] was 0.95.

For `CC(C)CC[C@H]1OC(C)(C)O[C@]1(C)[C@H]1CC[C@@]2(O)C3=CC(=O)[C@@H]4C[C@@H](O)[C@@H](O)C[C@]4(C)[C@H]3[C@H](O)C[C@]12C`, the Ratio [1] was 1.93, the “fractional inhibitory concentration index (FICI)” value [5] was 0.52 and the “fractional inhibitory concentration index (FICI)” value [6] was 0.25. The “fractional inhibitory concentration index (FICI)” value [7] was 0.13.

For `CCC1=C(C)C(=O)O[C@@H]([C@](C)(O)[C@H]2CC[C@@]3(O)C4=CC(=O)[C@@H]5C[C@@H](O)[C@@H](O)C[C@]5(C)[C@H]4CC(=O)[C@]23C)C1` [AJUGALACTONE], the Ratio [1] was 0.87, the “fractional inhibitory concentration index (FICI)” value [2] was 1.43 and the “fractional inhibitory concentration index (FICI)” value [3] was 1.96. The “fractional inhibitory concentration index (FICI)” value [4] was 2.89.

In the case of `CC(C)(O)CC[C@H]1OC(C)(C)O[C@]1(C)[C@H]1CC[C@@]2(O)C3=CC(=O)[C@H]4C[C@@H](O)CC[C@]4(C)[C@H]3CC[C@]12C`, the Ratio [1] is reported as 8.19, the “fractional inhibitory concentration index (FICI)” value [2] is reported as 1.28 and the “fractional inhibitory concentration index (FICI)” value [3] is reported as 0.69. The “fractional inhibitory concentration index (FICI)” value [4] was 0.37.

In the case of `C[C@H]([C@H](O)CCC(C)(C)O)[C@H]1CC[C@@]2(O)C3=CC(=O)[C@@H]4C[C@@H](O)[C@@H](O)C[C@]4(C)[C@H]3CC[C@]12C` [ECDYSONE], the Ratio [1] is reported as 1.38, the “fractional inhibitory concentration index (FICI)” value [2] is reported as 2.31 and the “fractional inhibitory concentration index (FICI)” value [3] is reported as 4.89. For the same compound, the “fractional inhibitory concentration index (FICI)” value [4] was 12.16.

In the case of `CC(C)(O)CC[C@@H](O)[C@](C)(O)[C@H]1CC[C@@]2(O)C3=CC(=O)[C@H]4C[C@@H](O)[C@@H](O)C[C@]4(C)[C@H]3CC[C@]12C`, the Ratio [1] is reported as 0.81, the “fractional inhibitory concentration index (FICI)” value [2] is reported as 0.99 and the “fractional inhibitory concentration index (FICI)” value [3] is reported as 0.57. For the same compound, the “fractional inhibitory concentration index (FICI)” value [4] was 0.37.

For `CC(C)CC[C@@H](O)[C@](C)(O)[C@H]1CC[C@@]2(O)C3=CC(=O)[C@]4(O)C[C@@H](O)[C@@H](O)C[C@]4(C)[C@H]3[C@H](O)C[C@]12C` [MURISTERONE A], the Ratio [1] was 0.74.

In the case of `C[C@H]([C@H](O)CCC(C)(C)O)[C@H]1CC[C@@]2(O)C3=CC(=O)[C@@H]4C[C@@H](O)CC[C@]4(C)[C@H]3CC[C@]12C`, the Ratio [1] is reported as 0.94, the “fractional inhibitory concentration index (FICI)” value [2] is reported as 2.05 and the “fractional inhibitory concentration index (FICI)” value [3] is reported as 1.27. For the same compound, the “fractional inhibitory concentration index (FICI)” value [4] was 0.81.

With `CC(=O)O[C@H]1C[C@]2(C)[C@H]3CC[C@]4(C)[C@@H]([C@@](C)(O)[C@@H](CCC(C)(C)OC(C)=O)OC(C)=O)CC[C@@]4(O)C3=CC(=O)[C@]2(O)C[C@H]1OC(C)=O` the Ratio [1] was 1.48, the “fractional inhibitory concentration index (FICI)” value [2] was 0.65 and the “fractional inhibitory concentration index (FICI)” value [3] was 0.46. The “fractional inhibitory concentration index (FICI)” value [4] was 0.38.

For `CC(C)(O)CC[C@@H](O)[C@](C)(O)[C@H]1CC[C@@]2(O)C3=CC(=O)[C@@H]4C[C@@H](O)[C@@H](O)C[C@]4(C)C3=CC[C@]12C`, the Ratio [1] was 1.24, the “fractional inhibitory concentration index (FICI)” value [2] was 2.66 and the “fractional inhibitory concentration index (FICI)” value [3] was 3.35. For the same compound, the “fractional inhibitory concentration index (FICI)” value [4] was 4.61.

In the case of `CC(C)(O)CCC[C@](C)(O)[C@H]1CC[C@@]2(O)C3=CC(=O)[C@@H]4C[C@@H](O)[C@@H](O)C[C@]4(C)[C@H]3CC[C@]12C`, the Ratio [1] is reported as 0.67, the “fractional inhibitory concentration index (FICI)” value [2] is reported as 2.04 and the “fractional inhibitory concentration index (FICI)” value [3] is reported as 1.75. For the same compound, the “fractional inhibitory concentration index (FICI)” value [4] was 1.59.

For `CC(C)(O)CC[C@@H](O)[C@](C)(O)[C@H]1CC[C@@]2(O)C3=CC(=O)[C@@H]4C[C@@H](O)[C@@H](O)[C@@H](O)[C@]4(C)[C@H]3CC[C@]12C` [INTEGRISTERONE A], the Ratio [1] was 0.94, the “fractional inhibitory concentration index (FICI)” value [2] was 0.8 and the “fractional inhibitory concentration index (FICI)” value [3] was 1.31. For the same compound, the “fractional inhibitory concentration index (FICI)” value [4] was 2.42.

With `CC(C)(CC[C@@H](O)[C@](C)(O)[C@H]1CC[C@@]2(O)C3=CC(=O)[C@@H]4C[C@@H](O)CC[C@]4(C)[C@H]3CC[C@]12C)O[C@@H]1O[C@H](CO)[C@@H](O)[C@H](O)[C@H]1O` the Ratio [1] was 0.68, the “fractional inhibitory concentration index (FICI)” value [2] was 1.05 and the “fractional inhibitory concentration index (FICI)” value [3] was 0.72. For the same compound, the “fractional inhibitory concentration index (FICI)” value [4] was 0.51.

With `CC(=O)O[C@H](CCC(C)(C)O)[C@](C)(O)[C@H]1CC[C@@]2(O)C3=CC(=O)[C@@H]4C[C@@H](O)[C@@H](O)C[C@]4(C)[C@H]3CC[C@]12C` the Ratio [1] was 1.54, the “fractional inhibitory concentration index (FICI)” value [2] was 1.6 and the “fractional inhibitory concentration index (FICI)” value [3] was 0.97. The “fractional inhibitory concentration index (FICI)” value [4] was 0.64.

With `CC(=O)[C@H]1CC[C@@]2(O)C3=CC(=O)[C@@H]4C[C@@H](O)[C@@H](O)C[C@]4(C)C3=CC[C@]12C` the Ratio [1] was 5.4, the “fractional inhibitory concentration index (FICI)” value [2] was 1.21 and the “fractional inhibitory concentration index (FICI)” value [3] was 0.67. The “fractional inhibitory concentration index (FICI)” value [4] was 0.37.

`CC(C)CC[C@@H](O)[C@](C)(O)[C@H]1CC[C@@]2(O)C3=CC(=O)[C@@H]4C[C@@H](O)[C@@H](O)C[C@]4(C)[C@H]3CC[C@]12C` [PONASTERONE A] was tested, and the Ratio [1] was 1.26, the “fractional inhibitory concentration index (FICI)” value [2] was 1.41 and the “fractional inhibitory concentration index (FICI)” value [3] was 0.78. For the same compound, the “fractional inhibitory concentration index (FICI)” value [4] was 0.44.

For `CC(C)(O)CC[C@H]1OC(C)(C)O[C@]1(C)[C@H]1CC[C@@]2(O)C3=CC(=O)[C@]4(O)C[C@@H](O)[C@@H](O)C[C@]4(C)[C@H]3CC[C@]12C`, the Ratio [1] was 1.8, the “fractional inhibitory concentration index (FICI)” value [2] was 0.63 and the “fractional inhibitory concentration index (FICI)” value [3] was 0.21. For the same compound, the “fractional inhibitory concentration index (FICI)” value [4] was 0.11.
